Literature values in patent US11655474B2, “Suppression of pathological angiogenesis by inhibition of NR2F6” (Regen Biopharma, Inc., priority 2019, dated 2023).

Legend:
human microvascular ECs = human microvascular ECs cultured in tumor-conditioned medium
[1] = subset that received paclitaxel with the antibody

| Compound | tumor CM-induced MDR1 up-regulation (human microvascular ECs) | HR, overall survival (ovarian cancer patients; bevacizumab plus chemotherapy compared with chemotherapy alone, 95 percent CI: 0.69, 1.14) | median progression free survival (PFS) (ovarian cancer patients; bevacizumab plus chemotherapy, ovarian cancer patients, chemotherapy alone 3.4 months) [months] | median overall survival (OS) (ovarian cancer patients; bevacizumab plus chemotherapy, chemotherapy alone 13.3 months) [months] | improvement in median OS (ovarian cancer patients; [1]) [month] | improvement in median PFS (ovarian cancer patients; [1]) [month] | HR, PFS (ovarian cancer patients; subset that received paclitaxel with the antibody, 95 percent CI: 0.31, 0.72) | HR, OS (ovarian cancer patients; subset that received paclitaxel with the antibody, 95 percent CI: 0.41, 1.01) | median PFS (ovarian cancer patients; subset that received paclitaxel with the antibody, versus 3.9 months) [months] | median OS (ovarian cancer patients; subset that received paclitaxel with the antibody, versus 13.2 months) [months] | objective response rate (ovarian cancer patients; subset that received paclitaxel with the antibody, versus 30 percent) [%] |
| --- | --- | --- | --- | --- | --- | --- | --- | --- | --- | --- | --- |
| COc1cc2nccc(Oc3ccc(NC(=O)Nc4ccc(F)cc4F)c(F)c3)c2cc1OC [Ki8751] | blocked | – | – | – | – | – | – | – | – | – | – |
| bevacizumab: antibody which binds VEGF | – | 0.89 | 6.8 | 16.6 | 9.2 | 5.7 | 0.47 | 0.64 | 9.6 | 22.4 | 53 |
